The source made the active and inactive calls. The rule behind the calls is not given here.
Legend:
[1] = test system: CAL-33; assay: Antiproliferative activity against human CAL-33 cells incubated for 48 hrs by XTT assay; assay type: functional, cell-based; conditions: CAL-33, 48 h
[2] = test system: RCC4; assay: Antiproliferative activity against human RCC4 cells incubated for 48 hrs by XTT assay; assay type: functional, cell-based; conditions: RCC4, 48 h
[3] = test system: A498; assay: Antiproliferative activity against human A498 cells incubated for 48 hrs by XTT assay; assay type: functional, cell-based; conditions: A498, 48 h
[4] = Antiproliferative activity against human Sunitinib-resistant 786-R cells incubated for 48 hrs by XTT assay; assay type: functional, cell-based
[5] = Antiproliferative activity against human Cisplatin and radiotherapy resistant CAL27RR cells incubated for 48 hrs by XTT assay; assay type: functional, cell-based
[6] = test system: CAL-27; assay: Antiproliferative activity against human CAL-27 cells incubated for 48 hrs by XTT assay; assay type: functional, cell-based; conditions: CAL-27, 48 h
[7] = Antiproliferative activity against human Cisplatin and radiotherapy resistant CAL33RR cells incubated for 48 hrs by XTT assay; assay type: functional, cell-based
[8] = test system: 786-0; assay: Antiproliferative activity against human 786-0 cells incubated for 48 hrs by XTT assay; assay type: functional, cell-based; conditions: 786-0, 48 h
[9] = test system: A498; assay: Inhibition of CXCL8-induced cell migration in human A498 cells at 0.5 uM incubated for 24 hrs by crystal violet staining based analysis relative to control; assay type: functional
[10] = test system: A498; assay: Inhibition of cell invasion in human A498 cells cultured as 3D spheroids at 5 uM measured after 7 days by light microscopic imaging analysis relative to control; assay type: functional; conditions: A498, 168 h, time 7 day
[11] = test system: A498; assay: Inhibition of cell invasion in human A498 cells cultured as 3D spheroids at 5 uM measured after 7 days by light microscopic imaging analysis; assay type: functional, cell-based; conditions: time 7.0 day

Row | IC50 [8] | Structure (SMILES) | IC50 [1] | IC50 [2] | IC50 [3] | IC50 [4] | IC50 [5] | IC50 [6] | IC50 [7] | inhibition at 0.5 µM [9] | inhibition at 5 µM [10] | inhibition [11]
1 | > 25 µM | O=C(Nc1cccc(Cl)c1)Nc1nc2ccc(Br)cc2s1 | > 25 µM | > 25 µM | > 25 µM | > 25 µM | > 25 µM | > 25 µM | > 25 µM |  |  | 
2 | 25 µM | COc1ccc(NC(=O)Nc2nc3ccc([N+](=O)[O-])cc3s2)cc1 | > 25 µM | 20 µM | 20 µM | 25 µM | > 25 µM | > 25 µM | > 25 µM |  |  | 
3 | 4 µM | Cc1ccc(NC(=O)Nc2nc3ccc([N+](=O)[O-])cc3o2)cc1 | 15 µM | 2 µM | 9 µM | 25 µM | 20 µM | 25 µM | 20 µM |  |  | 
4 | > 25 µM | CCOc1ccc2nc(NC(=O)Nc3cccc(Cl)c3)sc2c1 | 4 µM | > 25 µM | > 25 µM | > 25 µM | 20 µM | > 25 µM | > 25 µM |  |  | 
5 | 2 µM | O=C(Nc1ccc(Cl)cc1)Nc1nc2ccc([N+](=O)[O-])cc2s1 | 2.5 µM | 3 µM | 3 µM | 5 µM | 4 µM | 5 µM | 2 µM | > 50% | > 75% | 
6 |  | O=C(Nc1cccc(Cl)c1)Nc1nc2ccc([N+](=O)[O-])cc2s1 | 2 µM | 5 µM |  | 2.5 µM | 2 µM | 3 µM | 3 µM | > 50% | > 75% | 
7 | > 10 µM | O=C(Nc1cccc(Cl)c1)Nc1nc2ccc(-c3ccoc3)cc2s1 | > 10 µM | > 10 µM | > 10 µM | > 10 µM | > 10 µM | > 10 µM | > 10 µM |  |  | 
8 | > 25 µM | O=C(Nc1cccc(Cl)c1)Nc1nc2ccc(-c3ccsc3)cc2s1 | > 25 µM | > 25 µM | > 25 µM | > 25 µM | > 25 µM | > 25 µM | > 25 µM |  |  | 
9 | 15 µM | O=C(Nc1nc2ccc([N+](=O)[O-])cc2s1)Nc1ccccc1Br | 8 µM | 25 µM | 20 µM | 14 µM | 25 µM | > 25 µM | > 25 µM |  |  | 
10 | 4 µM | Cc1nn(C)cc1-c1ccc2nc(NC(=O)Nc3cccc(Cl)c3)sc2c1 | 6 µM | 8 µM | 5 µM | 8 µM | 6 µM | 7 µM | 7 µM |  |  | Active
11 | > 10 µM | Cc1ccc(-c2ccc3nc(NC(=O)Nc4cccc(Cl)c4)sc3c2)s1 | > 10 µM | > 10 µM |  | > 10 µM | > 10 µM | > 10 µM | > 10 µM |  |  | 
12 | 8 µM | Cc1ccccc1NC(=O)Nc1nc2ccc([N+](=O)[O-])cc2s1 | 4 µM | 10 µM | 6 µM | 6 µM | 4 µM | 4 µM | 4 µM |  |  | 
13 | 25 µM | O=C(Nc1ccccc1)Nc1nc2cc([N+](=O)[O-])ccc2[nH]1 | 20 µM | > 25 µM | 25 µM | > 25 µM | 15 µM | > 25 µM | > 25 µM |  |  | 
14 | 7 µM | O=C(Nc1nc2ccc([N+](=O)[O-])cc2s1)Nc1ccccc1Cl | 8 µM | 9 µM | 6 µM | 10 µM | 7 µM | 8 µM | 7 µM |  |  | 
15 | > 25 µM | CCOc1ccc2nc(NC(=O)Nc3cc(Cl)cc(Cl)c3)sc2c1 | 15 µM | > 25 µM | > 25 µM | > 25 µM | 20 µM | > 25 µM | > 25 µM |  |  | 
16 | > 25 µM | O=C(Nc1cccc(Cl)c1)Nc1nc2ccc(-c3ccco3)cc2s1 | > 25 µM | > 25 µM | > 25 µM | > 25 µM | > 25 µM | > 25 µM | > 25 µM |  |  | 

Row | IC50 [8] | Structure (SMILES) | IC50 [1] | IC50 [2] | IC50 [3] | IC50 [4] | IC50 [5] | IC50 [6] | IC50 [7] | inhibition at 0.5 µM [9] | inhibition at 5 µM [10] | inhibition [11]
17 | 4 µM | O=C(Nc1cccc(Cl)c1)Nc1nc2cc([N+](=O)[O-])ccc2[nH]1 | 15 µM | 3 µM | 8 µM | 4 µM | 10 µM | 25 µM | 25 µM |  |  | 
18 | 5 µM | O=C(Nc1ccccc1)Nc1nc2ccc([N+](=O)[O-])cc2s1 | 6 µM | 5 µM | 3 µM | 5 µM | 4 µM | 25 µM | 25 µM |  |  | 
19 | 5 µM | Cc1ccc(NC(=O)Nc2nc3ccc([N+](=O)[O-])cc3s2)cc1 | 7 µM | 10 µM | 15 µM | 5 µM | 4 µM | 7 µM | 7 µM |  |  | 
20 | > 10 µM | Cn1cc(-c2ccc3nc(NC(=O)Nc4cccc(Cl)c4)sc3c2)cn1 | > 10 µM | > 10 µM | > 10 µM | > 10 µM | > 10 µM | 7 µM | > 10 µM |  |  | 
21 | 2.5 µM | Cc1noc(C)c1-c1ccc2nc(NC(=O)Nc3cccc(Cl)c3)sc2c1 | 3.5 µM | 5 µM | 3 µM | 4 µM | 2.5 µM | 1 µM | 3.5 µM |  |  | Active
22 | 25 µM | O=C(Nc1cccc(Cl)c1)Nc1nc2cc([N+](=O)[O-])ccc2o1 | > 25 µM | 25 µM | 25 µM | > 25 µM | > 25 µM | > 25 µM | > 25 µM |  |  | 
23 | 15 µM | O=C(Nc1cccc(Cl)c1)Nc1nc2ccc(-c3ccccn3)cc2s1 | > 25 µM | 25 µM | 12 µM | 8 µM | > 25 µM | > 25 µM | > 25 µM |  |  | 
24 | 20 µM | O=C(Nc1cccc(Cl)c1)Nc1nc2ccc([N+](=O)[O-])cc2o1 | > 25 µM | 25 µM | 22 µM | > 25 µM | > 25 µM | > 25 µM | 12 µM |  |  | 
25 | > 25 µM | CC(=O)Nc1ccc2nc(NC(=O)Nc3cccc(Cl)c3)sc2c1 | 20 µM | > 25 µM | 25 µM | 25 µM | 7 µM | > 25 µM | > 25 µM |  |  | 
26 | 20 µM | Nc1ccc2nc(NC(=O)Nc3cccc(Cl)c3)sc2c1 | > 25 µM | 20 µM | 20 µM | > 25 µM | 20 µM | > 25 µM | > 25 µM |  |  | 
27 | > 25 µM | O=C(Nc1cccc(Cl)c1)Nc1nc2ccc(-c3cccs3)cc2s1 | > 25 µM | > 25 µM | > 25 µM | > 25 µM | > 25 µM | > 25 µM | > 25 µM |  |  | 
28 | 7 µM | O=C(Nc1cccc(Cl)c1)Nc1nc2ccc(-c3cccc4ccccc34)cc2s1 | 12 µM | 8 µM | 5 µM | 10 µM | > 25 µM | > 25 µM | > 25 µM |  |  | inactive
29 | > 25 µM | CS(=O)(=O)Nc1ccc2nc(NC(=O)Nc3cccc(Cl)c3)sc2c1 | > 25 µM | > 25 µM | > 25 µM | > 25 µM | > 25 µM | > 25 µM | > 25 µM |  |  | 
30 | 5 µM | O=C(Nc1ccc(Br)cc1)Nc1nc2ccc([N+](=O)[O-])cc2s1 | 2 µM | 7 µM | 2.5 µM | 5 µM | 2.5 µM | 5 µM | 5 µM | > 50% | > 75% | 
31 | > 25 µM | O=C(Nc1ccccc1)Nc1nc2cc([N+](=O)[O-])ccc2o1 | > 25 µM | > 25 µM | > 25 µM | > 25 µM | > 25 µM | > 25 µM | > 25 µM |  |  | 

Reference: ChEMBL document CHEMBL5532720, “A Potent Solution for Tumor Growth and Angiogenesis Suppression via an ELR+CXCL-CXCR1/2 Pathway Inhibitor” (ACS Med Chem Lett, 2024)
